Reference: patent publication US9468670B2, “Melatonin-based treatment and diagnosis of bile duct disease” (Texas A&M University System, priority 2011, dated 2016)

Tests used:
[1] = Liver weight, body weight and liver to body weight ratio in normal and BDL rats; format: in vivo, rat; settings: tap water containing melatonin (20 mg/L) for 1 week
Protocol: Male 344 Fischer rats (150-175 g) were purchased from Charles River (Wilmington, Mass.) and kept in a temperature-controlled environment (22° C.) with 12:12 hr light/dark cycles. Animals were fed ad libitum and had free access to food and drinking water. […] Before each surgical procedure, animals were anesthetized with sodium pentobarbital (50 mg/kg BW, IP). All animal experiments were performed in accordance with a protocol approved by the Scott and White and Texas A&M Health Science Center Institutional Animal Care and Use Committee and conform to the Guide for the Care and Use of Laboratory Animals published by the US National Institutes of Health (NIH Publication No. 85-23, revised 1996). In all animals, wet liver weight, body weight, wet liver weight to body weight ratio, and an index of liver cell growth including cholangiocytes were measured ([…] et al., 1988).

[2] = Melatonin serum levels by ELISA in normal and BDL rats; format: in vivo; settings: male, Fischer 344, rat, oral, 20 mg/L in drinking water, tap water containing melatonin (20 mg/L) for 1 week
Protocol: Male 344 Fischer rats (150-175 g) were purchased from Charles River (Wilmington, Mass.) and kept in a temperature-controlled environment (22° C.) with 12:12 hr light/dark cycles. Animals were fed ad libitum and had free access to food and drinking water. The studies were performed in normal rats, and in rats that immediately after bile duct ligation (BDL, for collection of serum, liver tissues and cells) (Alpini et al., 1988) or bile duct incannulation (BDI, for bile collection) (Alpini et al., 1988) had ad libitum access to tap water or tap water containing melatonin (20 mg/L in drinking water that corresponds to approximately an intake of melatonin of 2 mg/g BW per day per rat) (Anisimov et al., 2003) for 1 week. Before each surgical procedure, animals were anesthetized with sodium pentobarbital (50 mg/kg BW, IP).
Melatonin serum levels were measured by commercially available ELISA kits according to the instructions provided by the vendor (Genway, San Diego, Calif.).

[3] = tested on: large mouse cholangiocyte lines; experiment: cAMP levels (RIA) in large mouse cholangiocyte lines; format: cell-based; settings: melatonin 10^−11 M for 5 minutes
Description: (§1) The expression of MT1 and MT2 receptors in immortalized large cholangiocytes was first evaluated by immunofluorescence (Francis et al., 2008). Images were visualized using an Olympus IX-71 confocal microscope. For all immunoreactions, negative controls (with normal serum from the same species substituted for the primary antibody) were included. It was next evaluated by commercially available radioimmunoassay (RIA) kits ([…] et al., 1998; Kato et al., 1992; […] et al., 1999; […] et al., 2004) for cAMP levels ([…] et al., 1998; Kato et al., 1992; […] Shiu et al., 2010). […] […] et al., 1992; Ramirez-Rodriguez et al., 2009; […], 1999). […] Shiu et al., 2010) before evaluating by immunoblots (Francis et al., 2008) the expression of PCNA and the phosphorylation of PKA and EKR1/2.

[4] = tested on: large cholangiocyte lines; experiment: PCNA expression and PKA, ERK1/2 phosphorylation (immunoblots) in immortalized large cholangiocytes; format: cell-based, mouse; settings: melatonin 10^−11 M, 48 hours
Description: as §1

[5] = tested on: CCA lines; experiment: Proliferation by MTS assay in CCA lines and H69; format: cell-based, human; settings: melatonin 10-7 to 10-11 M, 24-72 hours
Protocol: (§2) Methods: Melatonin immunoreactivity, the expression of melatonin biosynthesis enzymes and receptors were assessed by immunohistochemistry in tissue arrays from normal and CCA patients, and by qPCR and immunoblots in intra-hepatic and extra-hepatic CCA cell lines, and a normal cholangiocyte line (H69). Proliferation was evaluated in vitro by MTS assay in CCA lines and H69 after treatment with melatonin (10-7 to 10-11 M, 24-72 hours). In parallel, the expression of CLOCK after melatonin treatment (10-11 M for 48 hours) was assessed in CCA lines and normal cholangiocytes by qPCR.

[6] = tested on: CLOCK gene; experiment: CLOCK expression by qPCR in CCA lines after melatonin; format: cell-based, human; settings: melatonin 10-11 M for 48 hours
Protocol: as §2

[7] = tested on: miR-34a; experiment: miRNA expression in melatonin treated xenograft tumor tissues; settings: melatonin treatment in vivo
Protocol: Methods: miRNA expression in normal human cholangiocytes (HiBECs), and the CCA cell lines Mz-ChA-1 and TFK cells, as well as melatonin treated xenograft tumor tissues were evaluated using a hybridization-based miRNA microarray. The expression of selected mature miRNAs was also assessed by real-time PCR. The effect of selected miRNAs on cell growth and invasion was assessed using miRNA modulators to alter cellular expression. Cell migration and invasion through a matrigel layer was quantitated using commercial assays. BCL-2, period homolog 1 (PER1) and tissue inhibitor of metalloproteinases 3 (TIMP-3) mRNA expression was quantitated by real-time PCR analysis.

[8] = tested on: cholangiocytes; experiment: Biliary proliferation (PCNA, IBDM) and apoptosis (TUNEL) in Morpholino-treated rats; format: in vivo, rat; settings: normal rats, 1 mg/Kg BW/day for 1 week via portal vein catheter
Protocol: In separate experiments, normal rats treated with Vivo-Morpholino sequences of AANAT (5′-[…] (SEQ ID NO:1), to reduce the biliary expression of AANAT) or Morpholino mismatched (5′-[…] (SEQ ID NO:2)) (Gene Tools LCC) (1 mg/Kg BW/day) for 1 week via an implanted portal vein catheter. Serum, liver tissue, cholangiocytes, kidney, spleen, small intestine, stomach and heart were collected. Since our goal was to knock-down AANAT expression in the liver without inhibiting AANAT expression in other organs, we used a lower dose (1 mg/Kg/day) of Vivo-Morpholino than that described in the original study (3.0 mg/kg/day (Arora et al., 2002). This approach minimizes the amount of Vivo-Morpholino that circulates outside of the liver after slow infusion into the portal vein. See below for the surgical procedure for the implantation of the portal vein catheter by which AANAT Vivo-Morpholino or Morpholino mismatched was administered.
Biliary proliferation was determined by measurement of the percentage of PCNA-positive cholangiocytes by immunohistochemistry, and intrahepatic bile duct mass (IBDM) by immunohistochemistry for CK-19 (Mancinelli et al., 2010). Biliary apoptosis was evaluated by semiquantitative terminal deoxynucleotidyltransferase biotin-dUTP nick-end labeling (TUNEL) kit (Chemicon International, Inc., Temecula, Calif.) (Mancinelli et al., 2010). IBDM was determined as the area occupied by CK-19 positive-bile duct/total area×100 (Mancinelli et al., 2010). The morphological changes/damage in liver, spleen, kidney, heart, stomach, and small intestine were evaluated from AANAT Vivo-Morpholino- or mismatch-treated rats by H&E staining. The serum levels of the transaminases, glutamate pyruvate transaminases (SGPT) and glutamic oxaloacetic transaminase (SGOT), alkaline phosphatase (ALP) and total bilirubin were evaluated using a Dimension RxL Max Integrated Chemistry system (Dade Behring Inc., Deerfield Ill.), Chemistry Department, Scott & White.

| concentration at 1 week ([2]; BDL rats) [ng/mL] | concentration at 1 week ([2]; normal rats) [ng/mL] | Compound | Body weight ([1]; BDL rats) [gm] | Liver to body weight ratio ([1]; BDL rats) | Liver weight ([1]; BDL rats) [gm] | Body weight ([1]; normal rats) [gm] | cAMP levels [3] | PCNA expression and phosphorylation of PKA and ERK2 (but not ERK1) [4] | Decrease in CCA growth compared to normal cholangiocytes [5] [%] | Increase in levels of the CLOCK gene in CCA cells [6] [%] | miR-34a expression in Mz-ChA-1 xenograft tumor [7] | % IBDM [8] [%] | % PCNA-positive cholangiocytes [8] [%] | % apoptotic cholangiocytes [8] [%] |
| --- | --- | --- | --- | --- | --- | --- | --- | --- | --- | --- | --- | --- | --- | --- |
| 0.165 ± 0.0668 | 0.14 ± 0.0127 | COc1ccc2[nH]cc(CCNC(C)=O)c2c1 [melatonin] | 150.1 ± 7.9 | 4.5 ± 0.1 | 6.7 ± 0.1 | 206.6 ± 3.9 | decreased | decreased | 65 | ~50 | significant reduction | – | – | – |
| – | – | AANAT Vivo-Morpholino: Vivo-Morpholino sequence of AANAT 5′-GTTCCCCAGCTTTGGAAGTGGTCCC (SEQ ID NO:1), to reduce the biliary expression of AANAT (all phosphorodiamidate morpholino (PMO); Vivo-Morpholino delivery moiety attached, position not given here, further chemistry not fully specified) | – | – | – | – | – | – | – | – | – | 0.45 ± 0.10 | 8.98 ± 0.6 | <5 |
